According to PubChem BioAssay (NCI):
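Values below derive from 48-hour exposures of cells grown in 96-well plates, with endpoints linearly interpolated between the two concentrations bracketing the appropriate inhibition level. GI50 is the concentration that inhibits growth by half. Definition used: TGI = concentration required for complete inhibition of growth.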

Assays:
Assay in all cases: NCI anticancer screen, dose series, 48 h
HCC-2998 colon = system: HCC-2998 colon
HCT-116 colon = system: HCT-116 colon
SF-268 CNS = system: SF-268 CNS
UACC-62 melanoma = system: UACC-62 melanoma
SNB-78 CNS = system: SNB-78 CNS
IGROV1 ovarian = system: IGROV1 ovarian
OVCAR-5 ovarian = system: OVCAR-5 ovarian
SR leukemia = system: SR leukemia
HL-60(TB) leukemia = system: HL-60(TB) leukemia
ACHN renal = system: ACHN renal
DMS 273 small cell lung = system: DMS 273 small cell lung
NCI-H522 lung = system: NCI-H522 lung
SN12C renal = system: SN12C renal
DLD-1 colon = system: DLD-1 colon
NCI-H23 lung = system: NCI-H23 lung
UACC-257 melanoma = system: UACC-257 melanoma
HT29 colon = system: HT29 colon
MOLT-4 leukemia = system: MOLT-4 leukemia
CAKI-1 renal = system: CAKI-1 renal
NCI-H226 lung = system: NCI-H226 lung
RXF-631 renal = system: RXF-631 renal
A549 NSCLC = system: A549 NSCLC
OVCAR-3 ovarian = system: OVCAR-3 ovarian
EKVX NSCLC = system: EKVX NSCLC
OVCAR-8 ovarian = system: OVCAR-8 ovarian
SW-620 colon = system: SW-620 colon
SK-MEL-2 melanoma = system: SK-MEL-2 melanoma
LXFL 529 NSCLC = system: LXFL 529 NSCLC
SK-MEL-5 melanoma = system: SK-MEL-5 melanoma
COLO 205 colon = system: COLO 205 colon
TK-10 renal = system: TK-10 renal
U251 CNS = system: U251 CNS
SK-OV-3 ovarian = system: SK-OV-3 ovarian
SNB-75 CNS = system: SNB-75 CNS
KM12 colon = system: KM12 colon
M14 melanoma = system: M14 melanoma
K-562 leukemia = system: K-562 leukemia
SF-539 CNS = system: SF-539 CNS
OVCAR-4 ovarian = system: OVCAR-4 ovarian
KM20L2 colon = system: KM20L2 colon
A498 renal = system: A498 renal
786-0 renal = system: 786-0 renal
HCT-15 colon = system: HCT-15 colon
RPMI-8226 leukemia = system: RPMI-8226 leukemia
HOP-62 NSCLC = system: HOP-62 NSCLC
MALME-3M melanoma = system: MALME-3M melanoma
SK-MEL-28 melanoma = system: SK-MEL-28 melanoma
RXF 393 renal = system: RXF 393 renal
SF-295 CNS = system: SF-295 CNS
UO-31 renal = system: UO-31 renal
SNB-19 CNS = system: SNB-19 CNS
DMS 114 small cell lung = system: DMS 114 small cell lung

## CCCOC(=O)C1C(c2ccc(OC)cc2)NC(c2ccc(OC)cc2)C(C(=O)OCCC)S1(=O)=O (stereo not given)
HCC-2998 colon
  GI50: > 100 µM
  TGI: > 100 µM
HCT-116 colon
  GI50: > 100 µM
  TGI: > 100 µM
SF-268 CNS
  GI50: > 100 µM
  TGI: > 100 µM
UACC-62 melanoma
  GI50: > 100 µM
  TGI: > 100 µM
SNB-78 CNS
  GI50: > 100 µM
  TGI: > 100 µM
IGROV1 ovarian
  GI50: > 100 µM
  TGI: > 100 µM
OVCAR-5 ovarian
  GI50: > 100 µM
  TGI: > 100 µM
SR leukemia
  TGI: > 100 µM
HL-60(TB) leukemia
  TGI: > 100 µM
ACHN renal
  GI50: > 100 µM
  TGI: > 100 µM
DMS 273 small cell lung
  GI50: > 100 µM
  TGI: > 100 µM
NCI-H522 lung
  GI50: > 100 µM
  TGI: > 100 µM
SN12C renal
  GI50: > 100 µM
  TGI: > 100 µM
DLD-1 colon
  GI50: > 100 µM
  TGI: > 100 µM
NCI-H23 lung
  GI50: > 100 µM
  TGI: > 100 µM
UACC-257 melanoma
  GI50: > 100 µM
  TGI: > 100 µM
HT29 colon
  GI50: > 100 µM
  TGI: > 100 µM
MOLT-4 leukemia
  GI50: > 100 µM
  TGI: > 100 µM
CAKI-1 renal
  GI50: > 100 µM
  TGI: > 100 µM
NCI-H226 lung
  GI50: > 100 µM
  TGI: > 100 µM
RXF-631 renal
  GI50: > 100 µM
  TGI: > 100 µM
A549 NSCLC
  GI50: > 100 µM
  TGI: > 100 µM
OVCAR-3 ovarian
  GI50: > 100 µM
  TGI: > 100 µM
EKVX NSCLC
  GI50: > 100 µM
  TGI: > 100 µM
OVCAR-8 ovarian
  GI50: > 100 µM
  TGI: > 100 µM
SW-620 colon
  GI50: > 100 µM
  TGI: > 100 µM
SK-MEL-2 melanoma
  GI50: > 100 µM
  TGI: > 100 µM
LXFL 529 NSCLC
  GI50: > 100 µM
  TGI: > 100 µM
SK-MEL-5 melanoma
  GI50: > 100 µM
  TGI: > 100 µM
COLO 205 colon
  GI50: > 100 µM
  TGI: > 100 µM
TK-10 renal
  GI50: > 100 µM
  TGI: > 100 µM
U251 CNS
  GI50: > 100 µM
  TGI: > 100 µM
SK-OV-3 ovarian
  TGI: > 100 µM
SNB-75 CNS
  GI50: > 100 µM
  TGI: > 100 µM
KM12 colon
  GI50: > 100 µM
  TGI: > 100 µM
M14 melanoma
  GI50: > 100 µM
  TGI: > 100 µM
K-562 leukemia
  GI50: > 100 µM
  TGI: > 100 µM
SF-539 CNS
  GI50: > 100 µM
  TGI: > 100 µM
OVCAR-4 ovarian
  GI50: > 100 µM
  TGI: > 100 µM
KM20L2 colon
  GI50: > 100 µM
  TGI: > 100 µM
A498 renal
  TGI: > 100 µM
786-0 renal
  GI50: > 100 µM
  TGI: > 100 µM
HCT-15 colon
  GI50: > 100 µM
  TGI: > 100 µM
RPMI-8226 leukemia
  GI50: > 100 µM
  TGI: > 100 µM
HOP-62 NSCLC
  GI50: > 100 µM
  TGI: > 100 µM
MALME-3M melanoma
  GI50: > 100 µM
  TGI: > 100 µM
SK-MEL-28 melanoma
  GI50: > 100 µM
  TGI: > 100 µM
RXF 393 renal
  GI50: > 100 µM
  TGI: > 100 µM
SF-295 CNS
  GI50: > 100 µM
  TGI: > 100 µM
UO-31 renal
  GI50: > 100 µM
  TGI: > 100 µM
SNB-19 CNS
  GI50: > 100 µM
  TGI: > 100 µM
DMS 114 small cell lung
  GI50: > 100 µM
  TGI: > 100 µM
